From PubChem BioAssay (NCI)
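1) Cells in 96-well plates. 2) Compound, 48 h, 5 concentrations. 3) Linear interpolation between surrounding doses. 4) Unreached endpoint = highest concentration. TGI: total growth inhibition.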

Tests used:
Experiment in all cases: inhibition of tumour cell growth, NCI panel, 48 h
SK-MEL-2 melanoma = tested on: SK-MEL-2 melanoma
PC-3 prostate = tested on: PC-3 prostate
A549 NSCLC = tested on: A549 NSCLC
HL-60(TB) leukemia = tested on: HL-60(TB) leukemia
MALME-3M melanoma = tested on: MALME-3M melanoma
SF-295 CNS = tested on: SF-295 CNS
SN12C renal = tested on: SN12C renal
SF-539 CNS = tested on: SF-539 CNS
LOX IMVI melanoma = tested on: LOX IMVI melanoma
OVCAR-8 ovarian = tested on: OVCAR-8 ovarian
SK-MEL-28 melanoma = tested on: SK-MEL-28 melanoma
HT29 colon = tested on: HT29 colon
HOP-92 NSCLC = tested on: HOP-92 NSCLC
A498 renal = tested on: A498 renal
SK-MEL-5 melanoma = tested on: SK-MEL-5 melanoma
UACC-62 melanoma = tested on: UACC-62 melanoma
DU-145 prostate = tested on: DU-145 prostate
NCI-H522 lung = tested on: NCI-H522 lung
MDA-MB-231 breast = tested on: MDA-MB-231 breast
MDA-N = tested on: MDA-N
HCC-2998 colon = tested on: HCC-2998 colon
HCT-15 colon = tested on: HCT-15 colon
MDA-MB-435 = tested on: MDA-MB-435
SNB-75 CNS = tested on: SNB-75 CNS
CCRF-CEM leukemia = tested on: CCRF-CEM leukemia
MCF7 breast = tested on: MCF7 breast
786-0 renal = tested on: 786-0 renal
KM12 colon = tested on: KM12 colon
SNB-19 CNS = tested on: SNB-19 CNS
CAKI-1 renal = tested on: CAKI-1 renal
HCT-116 colon = tested on: HCT-116 colon
M14 melanoma = tested on: M14 melanoma
COLO 205 colon = tested on: COLO 205 colon
OVCAR-4 ovarian = tested on: OVCAR-4 ovarian
HOP-62 NSCLC = tested on: HOP-62 NSCLC
T-47D breast = tested on: T-47D breast
IGROV1 ovarian = tested on: IGROV1 ovarian
EKVX NSCLC = tested on: EKVX NSCLC
NCI-H226 lung = tested on: NCI-H226 lung
OVCAR-5 ovarian = tested on: OVCAR-5 ovarian
MOLT-4 leukemia = tested on: MOLT-4 leukemia
U251 CNS = tested on: U251 CNS
OVCAR-3 ovarian = tested on: OVCAR-3 ovarian
UO-31 renal = tested on: UO-31 renal
SK-OV-3 ovarian = tested on: SK-OV-3 ovarian
NCI/ADR-RES ovarian = tested on: NCI/ADR-RES ovarian
ACHN renal = tested on: ACHN renal
SW-620 colon = tested on: SW-620 colon
UACC-257 melanoma = tested on: UACC-257 melanoma
K-562 leukemia = tested on: K-562 leukemia
NCI-H23 lung = tested on: NCI-H23 lung
TK-10 renal = tested on: TK-10 renal
SF-268 CNS = tested on: SF-268 CNS
HS 578T breast = tested on: HS 578T breast
SR leukemia = tested on: SR leukemia
RPMI-8226 leukemia = tested on: RPMI-8226 leukemia

Measured: TGI

CN(N=O)C(=O)Nc1c[nH]c(=O)[nH]c1=O
> 100 µM: SK-MEL-2 melanoma | PC-3 prostate | A549 NSCLC | HL-60(TB) leukemia | MALME-3M melanoma | SF-295 CNS | SN12C renal | SF-539 CNS | LOX IMVI melanoma | OVCAR-8 ovarian | SK-MEL-28 melanoma | HT29 colon | HOP-92 NSCLC | A498 renal | SK-MEL-5 melanoma | UACC-62 melanoma | DU-145 prostate | NCI-H522 lung | MDA-MB-231 breast | MDA-N | HCC-2998 colon | HCT-15 colon | MDA-MB-435 | SNB-75 CNS | CCRF-CEM leukemia | MCF7 breast | 786-0 renal | KM12 colon | SNB-19 CNS | CAKI-1 renal | HCT-116 colon | M14 melanoma | COLO 205 colon | OVCAR-4 ovarian | HOP-62 NSCLC | T-47D breast | IGROV1 ovarian | EKVX NSCLC | NCI-H226 lung | OVCAR-5 ovarian | MOLT-4 leukemia | U251 CNS | OVCAR-3 ovarian | UO-31 renal | SK-OV-3 ovarian | NCI/ADR-RES ovarian | ACHN renal | SW-620 colon | UACC-257 melanoma | K-562 leukemia | NCI-H23 lung | TK-10 renal

C=C[C@@H]1OC(=O)O[C@H]1CO
> 100 µM: SK-MEL-2 melanoma | PC-3 prostate | A549 NSCLC | MALME-3M melanoma | SF-295 CNS | SN12C renal | SF-268 CNS | HS 578T breast | LOX IMVI melanoma | SR leukemia | OVCAR-8 ovarian | SK-MEL-28 melanoma | HT29 colon | A498 renal | SK-MEL-5 melanoma | UACC-62 melanoma | DU-145 prostate | MDA-MB-231 breast | MDA-N | HCT-15 colon | MDA-MB-435 | SNB-75 CNS | CCRF-CEM leukemia | MCF7 breast | 786-0 renal | KM12 colon | SNB-19 CNS | RPMI-8226 leukemia | HCT-116 colon | M14 melanoma | COLO 205 colon | OVCAR-4 ovarian | HOP-62 NSCLC | IGROV1 ovarian | EKVX NSCLC | NCI-H226 lung | OVCAR-5 ovarian | MOLT-4 leukemia | U251 CNS | OVCAR-3 ovarian | UO-31 renal | SK-OV-3 ovarian | NCI/ADR-RES ovarian | ACHN renal | SW-620 colon | UACC-257 melanoma | K-562 leukemia | NCI-H23 lung | TK-10 renal
